Source: patent US20250075180A1, “METHOD FOR EXPANSION CULTURE OF GAMMA-DELTA T CELL” (IMMUNOMAX CO., LTD., priority 2022, published 2025)

Experiments:
γδ T cells [1] = experiment: γδ T cell proliferation rate and viability in PBMC culture depending on finasteride treatment period (Example 4); type: cell-based, human
Description: Peripheral blood mononuclear cells (PBMC) were isolated from healthy donors and were cultured for a total of 14 days by continuous treatment with 10 nM finasteride as the active ingredient for each period until day 7, day 10, and day 14 from the start date of culture, in addition to the basic culture components for γδ T cells (3 μM zoledronic acid and 10^3 IU/ml IL-2), and the activation and proliferation rates of γδ T cells were compared. The frozen peripheral blood mononuclear cells were thawed in a constant temperature water bath at 37° C. and then suspended in 9 ml of OpTmizer medium (cOpTmizer, Thermo-Fisher Scientific, USA) containing 10% fetal bovine serum (FBS). The number of cells was measured, followed by centrifugation at 400×g and 25° C. for 4 minutes. The cell pellets obtained by centrifugation were suspended in 5 ml of cOpTmizer medium (Thermo-Fisher Scientific, USA) and the number of cells was measured, after which the cells were diluted with cOpTmizer medium to a concentration of 1.0×10^6 cells/ml. A total of 1.0×10^6 cells was dispensed at 1 ml per well in a 24-well plate. To stimulate and induce differentiation of γδ T cells, 10 nM finasteride, 3 μM zoledronic acid (ZA), and 100 μl of IL-2 (10^3 IU/ml) were added, followed by culture in a CO2 incubator at 37° C. for 4 days. 4 days after the start of culture, the aggregated cells were resuspended using a 1000P micropipette, and the same amount of cOpTmizer culture medium based on the cell culture fluid in culture and 10 nM finasteride and IL-2 (10^3 IU/ml) for re-induction were further added, followed by culture in a CO2 incubator at 37° C. 5 days after the start of culture, the aggregated cells were resuspended using a 1000P micropipette and the number of cells was measured. 10 nM finasteride and IL-2 (10^3 IU/ml) were further added to the same amount of cOpTmizer culture medium based on the cell culture fluid in culture, followed by culture in a CO2 incubator at 37° C. The next day, 10 nM finasteride and IL-2 (10^3 IU/ml) were further added to half of the cOpTmizer culture medium based on the cell culture fluid in culture, followed by culture in a CO2 incubator at 37° C. 7 days after the start of culture, the aggregated cells were resuspended using a 1000P micropipette or a 10 ml serological pipette and the number of cells was measured. The cells were diluted with cOpTmizer culture medium to a concentration of 0.4×10^6 cells/ml based on the cells in culture, after which 10 nM finasteride and IL-2 (10^3 IU/ml) were added to the additional cOpTmizer culture medium, followed by culture in a CO2 incubator at 37° C. for 3 days. 10 days after the start of culture, the aggregated cells were resuspended using a 1000P micropipette or a 10 ml serological pipette and the number of cells was measured. The cells were diluted with cOpTmizer culture medium to a concentration of 0.4×10^6 cells/ml based on the cells in culture, after which 10 nM finasteride and IL-2 (10^3 IU/ml) were added to the additional cOpTmizer culture medium, followed by culture in a CO2 incubator at 37° C. On day 12 after the start of the culture, the same amount of cOpTmizer culture medium based on the cell culture fluid in culture, 10 nM finasteride, and IL-2 (10^3 IU/ml) were added, followed by culture in a CO2 incubator at 37° C. 14 days after the start of culture, the aggregated cells were resuspended using a 1000P micropipette or a 10 ml serological pipette and the number of cells was measured. […]

γδ T cells [2] = experiment: γδ T cell proliferation rate and viability in PBMC culture depending on finasteride concentration (Example 1); type: cell-based, human; conditions: for γδ T cell proliferation rate increase compared to control (IL-2 and ZA): PBMC from donor, 14-day culture; for proliferation rate of γδ T cells compared to control (in words): 14 days
Description: For 100 cc of blood from a healthy donor collected by a medical professional and placed in a heparin tube, 25 ml of 1×DPBS and 25 ml of the blood were placed in four 50 ml conical tubes. 15 ml of Lymphoprep (Axis Shield, UK) was vertically dispensed into a new 50 ml conical tube carefully to avoid contacting the wall as much as possible, and the diluted blood was slowly added to the top of the 50 ml conical tube containing the Lymphoprep solution along the wall. The conical tube was placed in a centrifuge and centrifuged at 800×g (1,890 rpm) for 20 minutes at room temperature. In the separated four blood layers, the white buffy coat layer between Lymphoprep and plasma layers was collected, transferred to new 50 ml conical tubes (three or four), and centrifuged at 1,500 rpm (500×g) for 10 minutes at room temperature. The cells divided into three or four 50 ml conical tubes were resuspended in 45 ml of 1×DPBS and then collected into one 50 ml conical tube. The cells collected in one tube were centrifuged a total of two times at 1,250 rpm (350×g) for 10 minutes at room temperature. A culture medium was added to a stock of 1.0×10^7 cells to a final volume of 10 ml so that the cell concentration was 1.0×10^6 cells/ml, followed by pipetting two or three times, after which 1.0 ml of the cells was dispensed as day 0 samples to proceed with culture, and the remaining cells were dispensed at 1.0×10^7 cells into frozen vials, stored frozen in a nitrogen tank (LN2 tank), and used by thawing as necessary. The peripheral blood mononuclear cells (PBMC) isolated in 1-1 were continuously treated with 3 μM zoledronic acid and 10^3 IU/ml IL-2 as basic culture components for γδ T cells and with 0.01 nM and 10 nM finasteride as an active ingredient, followed by culture for a total of 14 days, and the activation and proliferation rates of γδ T cells were compared. The frozen peripheral blood mononuclear cells were thawed in a constant temperature water bath at 37° C. and then suspended in 9 ml of OpTmizer medium (Thermo-Fisher Scientific, USA) containing 10% heat inactivated fetal bovine serum (FBS, Gibco, USA). The number of cells was measured, followed by centrifugation at 400×g and 25° C. for 4 minutes. The cell pellets obtained by centrifugation were suspended in 5 ml of complete OpTmizer medium (10% fetal bovine serum+OpTmizer medium, cOpTmizer) and the number of cells was measured, after which the cells were diluted with cOpTmizer medium to a concentration of 1.0×10^6 cells/ml. […] After 2 days of re-induction, the aggregated cells were resuspended using a 1000P micropipette and the number of cells was measured. […] 7 days after the start of culture, the aggregated cells were resuspended using a 1000P micropipette or a 10 ml serological pipette and the number of cells was measured. […]

[3] = 10 nM finasteride continuously until day 7, 14-day culture, FIG. 9

CC(C)(C)NC(=O)[C@H]1CC[C@H]2[C@@H]3CC[C@H]4NC(=O)C=C[C@]4(C)[C@H]3CC[C@]12C [Finasteride]
γδ T cell proliferation rate increase compared to control group (γδ T cells [1]; [3]): about 1.5 times | γδ T cell proliferation rate increase compared to group treated continuously until day 10 or 14 (γδ T cells [1]; [3]): at least 1.1 times | cell viability compared to control group (γδ T cells [1]; continuous treatment with high concentration (10 nM) of finasteride): no significant difference | proportion of γδ T cells (γδ T cells [1]; cultured for 7 days): about 70% | proportion of γδ T cells (γδ T cells [1]; cultured for 10 days): ≥ 90% | γδ T cell proliferation rate increase compared to control (IL-2 and ZA) (γδ T cells [2]; 0.01 nM finasteride): 1.15 times increase | γδ T cell proliferation rate increase compared to control (IL-2 and ZA) (γδ T cells [2]; 10 nM finasteride): 1.35 times increase | proliferation rate of γδ T cells compared to control (in words) (γδ T cells [2]; female donors, low concentration of finasteride (0.01 nM), FIG. 2): increased | proliferation rate of γδ T cells compared to control (in words) (γδ T cells [2]; male donors, high concentration of finasteride (10 nM), FIG. 1): increased
